Measured values from patent US20160199326A1, “USE OF TRIFLUOROACETIC ACID AS KERATOLYTIC AGENT TO TREAT HYPERKERATOTIC SKIN LESIONS” (POLICHEM S.A., priority 2013, published 2016).

Assays:
tumor growth = settings: animal experimental models; cited from earlier work
angiogenesis = settings: cited from earlier work
solid tumor cells = settings: in vitro; cited from earlier work
[1] = system: stratum corneum of hairless rats; experiment: Exfoliating activity in vivo after topical application on the back of hairless rats, histological evaluation; parameters: species or system rat; settings: ten hairless rats, 10% CaTFA gel topical two times a day for ten days
Description: The formulations used had the following composition: Medicated formulation (D) CaTFA 10.00 g, Xanthan gum 2.00 g, Water q.s. to 100.00 g. Vehicle (V): Xanthan gum 2.00 g, Water q.s. to 100.00 g.
The experiments were carried out on 4 weeks old hairless male rats (HsdHanTM:RNU—Foxnl rnu, Harlan Italy srl, Correzzana, Italy). The back of ten rats was divided in two parts (section area: 2.5×3.0 cm) for topical application of the test formulations. A volume of 200 μl of the medicated formulation or the vehicle was applied two times a day for ten days. Fifteen hours after the last administration, the animals were sacrificed by cervical dislocation and the portion of skin submitted to the treatment was excised, carefully rinsed to remove the remaining formulation and submitted to histological evaluation. A sample of untreated skin of each animal was used as control (C). The histological evaluation was done as follows: the skin samples were fixed in 10% buffered formalin solution, dehydrated and embedded in JB-4 plastic resin. Coronal sections were cut by a microtome (Reichert-Jung) and mounted onto gelatin coated slides. Sections were stained with methylene blue/toluidine blue for microscopic examination to verify the absence of stratum corneum and the condition of the other parts of the skin. The specimens were assessed under Leitz Diaplan microscope.

[2] = known; cited from earlier work

O=C([O-])C(F)(F)F.O=C([O-])C(F)(F)F.[Ca+2] [Calcium trifluoroacetate]
tumor growth (tumor growth): inhibit tumor growth
antiangiogenetic activity (angiogenesis): relevant antiangiogenetic activity
cytotoxic activity (solid tumor cells): in vitro cytotoxic activity on solid tumor cells
effective as keratolytic agent, share of treated animals [1]: 70%

O=C([O-])C(F)(F)F.[Na+] [NaTFA, Sodium Trifluoroacetate]
toxicity [2]: devoid of significant toxicity
